# Results: article PMC12385147, “Discovery of Novel 2-Substituted Aniline Pyrimidine Based Derivatives as Potent Mer/c-Met Dual Inhibitors with Improvement Bioavailability” (Biomolecules, 2025)
# Like-named read-outs stand apart in the source and are kept apart here.
# Experiments:
# Mer kinase = target: T1, Mer kinase (Homo sapiens, UniProt Q12866); assay: Mer kinase inhibition assay (TK-Sub-Biotin / cryptate detection); format: biochemical; details: for IC50: means from three independent experiments
# T1 construct: purchased Invitrogen (Shanghai, China)
# T1 sequence (Q12866 21-999): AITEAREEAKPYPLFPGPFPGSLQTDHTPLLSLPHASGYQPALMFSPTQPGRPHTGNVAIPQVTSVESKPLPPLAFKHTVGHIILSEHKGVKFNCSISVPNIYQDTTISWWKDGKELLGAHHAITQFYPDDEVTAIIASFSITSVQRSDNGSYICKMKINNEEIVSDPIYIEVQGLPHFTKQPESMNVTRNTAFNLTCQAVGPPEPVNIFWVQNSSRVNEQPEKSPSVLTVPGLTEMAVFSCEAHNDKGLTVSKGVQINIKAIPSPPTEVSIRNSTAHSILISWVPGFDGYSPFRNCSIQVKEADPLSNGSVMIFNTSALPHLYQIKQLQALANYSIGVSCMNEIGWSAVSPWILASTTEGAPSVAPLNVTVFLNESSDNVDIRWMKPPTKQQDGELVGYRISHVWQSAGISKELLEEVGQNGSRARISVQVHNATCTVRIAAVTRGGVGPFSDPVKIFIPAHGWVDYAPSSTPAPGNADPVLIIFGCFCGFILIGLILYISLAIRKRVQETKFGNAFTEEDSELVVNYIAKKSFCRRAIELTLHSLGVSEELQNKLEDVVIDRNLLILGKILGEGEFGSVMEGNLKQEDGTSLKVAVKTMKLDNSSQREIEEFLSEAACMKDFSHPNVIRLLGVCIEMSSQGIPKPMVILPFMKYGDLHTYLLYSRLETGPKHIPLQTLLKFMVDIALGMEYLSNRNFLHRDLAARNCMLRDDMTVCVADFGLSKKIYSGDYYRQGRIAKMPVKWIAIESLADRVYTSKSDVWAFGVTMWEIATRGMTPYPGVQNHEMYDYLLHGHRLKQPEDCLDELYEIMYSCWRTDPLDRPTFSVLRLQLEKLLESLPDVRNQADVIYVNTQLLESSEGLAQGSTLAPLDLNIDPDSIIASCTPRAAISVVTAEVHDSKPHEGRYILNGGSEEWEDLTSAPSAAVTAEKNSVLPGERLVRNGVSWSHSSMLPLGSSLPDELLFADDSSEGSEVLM
# c-Met kinase = target: T2, c-Met kinase (Homo sapiens, UniProt P08581); assay: c-Met kinase inhibition assay (TK-Sub-Biotin / cryptate detection); format: biochemical; details: for IC50: means from three independent experiments
# T2 construct: purchased Invitrogen (Shanghai, China)
# T2 sequence (P08581 25-1390): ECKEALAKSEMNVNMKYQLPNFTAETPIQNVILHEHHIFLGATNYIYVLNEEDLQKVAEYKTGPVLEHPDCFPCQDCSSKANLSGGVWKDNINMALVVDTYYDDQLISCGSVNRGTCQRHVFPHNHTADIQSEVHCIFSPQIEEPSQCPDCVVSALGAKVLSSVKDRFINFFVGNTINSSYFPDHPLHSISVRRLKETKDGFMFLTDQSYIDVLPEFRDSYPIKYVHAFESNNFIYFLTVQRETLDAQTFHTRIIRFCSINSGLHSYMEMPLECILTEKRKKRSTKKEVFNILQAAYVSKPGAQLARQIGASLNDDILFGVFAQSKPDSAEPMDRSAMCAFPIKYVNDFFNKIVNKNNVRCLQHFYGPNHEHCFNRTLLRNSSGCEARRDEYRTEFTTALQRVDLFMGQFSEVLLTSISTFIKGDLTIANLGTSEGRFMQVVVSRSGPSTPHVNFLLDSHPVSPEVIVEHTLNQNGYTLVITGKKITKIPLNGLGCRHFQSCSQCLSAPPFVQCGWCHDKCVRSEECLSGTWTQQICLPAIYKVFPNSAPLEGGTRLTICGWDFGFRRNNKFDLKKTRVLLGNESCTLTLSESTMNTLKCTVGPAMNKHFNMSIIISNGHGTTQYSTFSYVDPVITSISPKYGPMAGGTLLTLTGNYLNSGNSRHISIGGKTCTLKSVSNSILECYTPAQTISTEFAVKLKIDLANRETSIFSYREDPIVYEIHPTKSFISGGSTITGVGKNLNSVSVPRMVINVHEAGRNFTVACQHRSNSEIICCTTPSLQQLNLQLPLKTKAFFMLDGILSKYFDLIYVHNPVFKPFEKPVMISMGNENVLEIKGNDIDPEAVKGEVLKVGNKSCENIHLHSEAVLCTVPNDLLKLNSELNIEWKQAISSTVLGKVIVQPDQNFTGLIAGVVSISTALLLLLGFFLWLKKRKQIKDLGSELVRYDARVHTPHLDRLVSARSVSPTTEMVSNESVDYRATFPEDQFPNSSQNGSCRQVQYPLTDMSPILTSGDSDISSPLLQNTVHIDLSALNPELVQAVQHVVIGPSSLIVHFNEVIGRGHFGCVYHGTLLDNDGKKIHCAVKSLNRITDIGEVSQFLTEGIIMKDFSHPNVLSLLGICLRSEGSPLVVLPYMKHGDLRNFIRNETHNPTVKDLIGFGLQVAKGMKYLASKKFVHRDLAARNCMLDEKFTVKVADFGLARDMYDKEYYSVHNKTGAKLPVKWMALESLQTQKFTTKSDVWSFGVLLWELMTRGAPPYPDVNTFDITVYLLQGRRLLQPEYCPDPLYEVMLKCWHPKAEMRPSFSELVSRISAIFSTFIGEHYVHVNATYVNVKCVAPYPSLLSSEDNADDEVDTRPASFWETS
# [1] = Liver microsome stability assay; format: in vitro ADME, human; details: human, liver microsomes, pH 7.4, human liver microsomes; for microsomal CLint: read-out: CL (intrinsic clearance)
# [2] = cited from earlier work
# [3] = cited from earlier work; remark: listed apart in the source
# [4] = Plasma protein binding, equilibrium dialysis, rat plasma; format: in vitro ADME; details: 1 μM
# MDA-MB-231 = assay: Antiproliferation CCK-8 assay, MDA-MB-231; format: cell-based; details: Homo sapiens, CCK-8, 72 h
# Protocol: (§1) The HepG2, MDA-MB-231, and HCT116 cell lines were derived from our own laboratory (the laboratory of our collaborator, Dr. Xiaolei Zhou, at College of Food Science and Biology in Hebei University of Science and Technology). The antiproliferative activities were assessed using the CCK-8 assay. Cell viability was measured according to the manufacturer’s instructions for the Cell Counting Kit-8 (Meilunbio, Dalian, China). In this assay, 2.5 × 10^3 cells per well were seeded into 96-well plates.
# (§2) After an initial 12 h incubation, cancer cells were exposed to varying concentrations of compound 17c for 72 h. Following CCK-8 solution addition and 2 h incubation, the absorbance at 450 nm was measured using a BioTek Synergy HTX microplate reader. Experiments included triplicate wells with three independent replicates. The IC50 values for compound 17c were derived from an analysis of the dose–response curves in GraphPad PRISM 9.5.
# HCT116 = assay: Antiproliferation CCK-8 assay, HCT116; format: cell-based; details: Homo sapiens, HCT-116; CCK-8, 72 h; read-out: IC50 HCT116
# Protocol: as §1, §2
# HepG2 = assay: Antiproliferation CCK-8 assay, HepG2; format: cell-based; details: Homo sapiens, CCK-8, 72 h
# Protocol: as §1, §2
IC50 (Mer kinase) [nM],IC50 (c-Met kinase) [nM],Compound,also measured
12.1 ± 1.3,101 ± 18.5,"COCCNc1cccc(Nc2nccc(Oc3ccc(NC(=O)c4c(C)n(C)n(-c5ccccc5)c4=O)cc3)n2)c1 [compound 17b, N-(4-((2-((3-((2-methoxyethyl)amino)phenyl)amino)pyrimidin-4-yl)oxy)phenyl)-1,5-dimethyl-3-oxo-2-phenyl-2,3-dihydro-1H-pyrazole-4-carboxamide]",–
5.5 ± 0.8,25 ± 3.5,"CC(=O)N1CCN(c2cccc(Nc3nccc(Oc4ccc(NC(=O)c5c(C)n(C)n(-c6ccccc6)c5=O)cc4)n3)c2)CC1 [compound 17f, N-(4-((2-((3-(4-acetylpiperazin-1-yl)phenyl)amino)pyrimidin-4-yl)oxy)phenyl)-1,5-dimethyl-3-oxo-2-phenyl-2,3-dihydro-1H-pyrazole-4-carboxamide]",half-life [1]: 51 min; microsomal CLint [1]: 68 µL/min/mg
84.1 ± 13.9,137 ± 34.3,"Cc1c(C(=O)Nc2ccc(Oc3ccnc(Nc4ccc(C(=O)N5CCN(C)CC5)cc4)n3)cc2)c(=O)n(-c2ccccc2)n1C [compound 17d, 1,5-dimethyl-N-(4-((2-((4-(4-methylpiperazine-1-carbonyl)phenyl)amino)pyrimidin-4-yl)oxy)phenyl)-3-oxo-2-phenyl-2,3-dihydro-1H-pyrazole-4-carboxamide]",–
> 1000,140 ± 18.9,"Cc1c(C(=O)Nc2ccc(Oc3ccnc(Nc4ccc(NC(=O)CN5CCN(C)CC5)nc4)n3)cc2)c(=O)n(-c2ccccc2)n1C [compound 17g, 1,5-dimethyl-N-(4-((2-((6-(2-(4-methylpiperazin-1-yl)acetamido)pyridin-3-yl)amino)pyrimidin-4-yl)oxy)phenyl)-3-oxo-2-phenyl-2,3-dihydro-1H-pyrazole-4-carboxamide]",–
26.2 ± 7.1,233 ± 25.4,"Cc1c(C(=O)Nc2ccc(Oc3ccnc(Nc4ccc(OC5CCN(C)CC5)cc4)n3)cc2)c(=O)n(-c2ccccc2)n1C [compound 17a, 1,5-dimethyl-N-(4-((2-((4-((1-methylpiperidin-4-yl)oxy)phenyl)amino)pyrimidin-4-yl)oxy)phenyl)-3-oxo-2-phenyl-2,3-dihydro-1H-pyrazole-4-carboxamide]",–
69.8 ± 12.5,236 ± 25.6,"CC(=O)N1CCN(c2ccc(Nc3nccc(Oc4ccc(NC(=O)c5c(C)n(C)n(-c6ccccc6)c5=O)cc4)n3)cc2)CC1 [compound 17e, N-(4-((2-((4-(4-acetylpiperazin-1-yl)phenyl)amino)pyrimidin-4-yl)oxy)phenyl)-1,5-dimethyl-3-oxo-2-phenyl-2,3-dihydro-1H-pyrazole-4-carboxamide]",–
11.9 ± 1.7,45 ± 6.8,"Cc1c(C(=O)Nc2ccc(Oc3ccnc(Nc4ccc(NC(=O)C(C)N5CCN(C)CC5)cc4)n3)cc2)c(=O)n(-c2ccccc2)n1C (centres unmarked) [compound 17h, 1,5-dimethyl-N-(4-((2-((4-(2-(4-methylpiperazin-1-yl)propanamido)phenyl)amino)pyrimidin-4-yl)oxy)phenyl)-3-oxo-2-phenyl-2,3-dihydro-1H-pyrazole-4-carboxamide]",–

# Second part, the compound before the results:
Compound,IC50 (Mer kinase) [nM],IC50 (c-Met kinase) [nM],also measured
"O=C(NC1CCCNC1)c1ccc(Nc2nccc(Oc3ccc(NC(=O)C4(C(=O)Nc5ccc(F)cc5)CC4)cc3)n2)cc1 (centres unmarked) [compound 13g, N-(4-fluorophenyl)-N-(4-((2-((4-(piperidin-3-ylcarbamoyl)phenyl)amino)pyrimidin-4-yl)oxy)phenyl)cyclopropane-1,1-dicarboxamide]",> 1000,> 1000,–
COCCN1CCN(CC(=O)Nc2ccc(Nc3nccc(Oc4ccc(NC(=O)C5(C(=O)Nc6ccc(F)cc6)CC5)cc4)n3)cc2)CC1 [compound 13k],37.3 ± 10.6,35.4 ± 10,half-life [1]: 38.4 min; microsomal CLint [1]: 124 µL/min/mg
COCCNc1cccc(Nc2nccc(Oc3ccc(NC(=O)C4(C(=O)Nc5ccc(F)cc5)CC4)cc3)n2)c1 [compound 13b],24.3 ± 5.7,25.9 ± 7.7,half-life [1]: 38.3 min; microsomal CLint [1]: 90.5 µL/min/mg
CCCCNc1ncc2c(-c3ccc(F)cc3)nn(CC3CCC(N)CC3)c2n1 (centres unmarked) [UNC569],–,–,oral bioavailability F [2]: < 10%; human microsomal t1/2 [3]: < 15 min
"CCN(CC)CCNCC(=O)Nc1ccc(Nc2nccc(Oc3ccc(NC(=O)C4(C(=O)Nc5ccc(F)cc5)CC4)cc3)n2)cc1 [compound 13i, N-(4-((2-((4-(2-((2-(diethylamino)ethyl)amino)acetamido)phenyl)amino)pyrimidin-4-yl)oxy)phenyl)-N-(4-fluorophenyl)cyclopropane-1,1-dicarboxamide]",95.3 ± 20.1,88.6 ± 13.9,–
"O=C(NC1CCCNC1)c1cccc(Nc2nccc(Oc3ccc(NC(=O)C4(C(=O)Nc5ccc(F)cc5)CC4)cc3)n2)c1 (centres unmarked) [compound 13f, N-(4-fluorophenyl)-N-(4-((2-((3-(piperidin-3-ylcarbamoyl)phenyl)amino)pyrimidin-4-yl)oxy)phenyl)cyclopropane-1,1-dicarboxamide]",> 1000,> 1000,–
CN(C)CCNCC(=O)Nc1ccc(Nc2nccc(Oc3ccc(NC(=O)C4(C(=O)Nc5ccc(F)cc5)CC4)cc3)n2)cc1 [compound 13j],13.1 ± 2.1,48.6 ± 11.2,half-life [1]: 27.9 min; microsomal CLint [1]: 152 µL/min/mg
"O=C(Nc1ccc(F)cc1)C1(C(=O)Nc2ccc(Oc3ccnc(Nc4cn[nH]c4)n3)cc2)CC1 [compound 13c, N-(4-((2-((1H-pyrazol-4-yl)amino)pyrimidin-4-yl)oxy)phenyl)-N-(4-fluorophenyl)cyclopropane-1,1-dicarboxamide]",110 ± 15.7,48.9 ± 6.4,–
"CC(=O)CC(c1ccccc1)c1c(O)c2ccccc2oc1=O (centres unmarked) [Warfarin, reference compound]",–,–,Mean Fb [4]: 99.0%
CN1CCN(Cc2ccc(-c3cn([C@H]4CC[C@H](O)CC4)c4nc(NCCC5CC5)ncc34)cc2)CC1 [MRX2843],–,–,brain/plasma ration ([2]; CNS penetration): 0.4
"CN1CCC(Oc2ccc(Nc3nccc(Oc4ccc(NC(=O)C5(C(=O)Nc6ccc(F)cc6)CC5)cc4)n3)cc2)CC1 [compound 13a, N-(4-fluorophenyl)-N-(4-((2-((4-((1-methylpiperidin-4-yl)oxy)phenyl)amino)pyrimidin-4-yl)oxy)phenyl)cyclopropane-1,1-dicarboxamide]",21.7 ± 5.8,63.3 ± 9.1,–
"COc1cc2nccc(Oc3ccc(NC(=O)C4(C(=O)Nc5ccc(F)cc5)CC4)cc3)c2cc1OC [cabozantinib, reference compound]",–,–,IC50 (MDA-MB-231): 4.62 ± 0.54 µM; IC50 (HCT116): 15.6 ± 4.39 µM; IC50 (HepG2): 7.87 ± 2.11 µM
"CN1CCN(C(=O)c2ccc(Nc3nccc(Oc4ccc(NC(=O)C5(C(=O)Nc6ccc(F)cc6)CC5)cc4)n3)cc2)CC1 [compound 13h, N-(4-fluorophenyl)-N-(4-((2-((4-(4-methylpiperazine-1-carbonyl)phenyl)amino)pyrimidin-4-yl)oxy)phenyl)cyclopropane-1,1-dicarboxamide]",72 ± 8.9,41.6 ± 8.5,–
CC(=O)N1CCN(c2cccc(Nc3nccc(Oc4ccc(NC(=O)C5(C(=O)Nc6ccc(F)cc6)CC5)cc4)n3)c2)CC1 [compound 13e],7.5 ± 1.6,7.5 ± 1.1,"fold improvement over 18c, Mer IC50 (Mer kinase): 2.5 fold; half-life [1]: 30.4 min; microsomal CLint [1]: 114 µL/min/mg; fold improvement over 18c, c-Met IC50 (c-Met kinase): 4.5 fold"
CN1CCN(CC(=O)Nc2ccc(Nc3nccc(Oc4ccc(NC(=O)C5(C(=O)Nc6ccc(F)cc6)CC5)cc4)n3)cc2)CC1 [compound 18c],–,–,oral bioavailability F ([2]; previous study): 2.84%
"O=C(Nc1ccc(F)cc1)C1(C(=O)Nc2ccc(Oc3ccnc(Nc4cc(F)cc(F)c4)n3)cc2)CC1 [compound 13d, N-(4-((2-((3,5-difluorophenyl)amino)pyrimidin-4-yl)oxy)phenyl)-N-(4-fluorophenyl)cyclopropane-1,1-dicarboxamide]",640 ± 82.2,728 ± 131,–
